Measured values reported in patent US20130072505A1, “6,9-Disubstituted Purine Derivatives and Their Use for Treating Skin” (priority 2006, published 2013).
Entries after “also recorded” stand apart in the source; their conditions may differ. Like-named read-outs stand apart in the source and are kept apart here. Marks after values point to notes of the source that are not given here. Values belong to the compound of their own block, whether it stands above or below them.

Tests used:
[1] = tested on: Human forskin fibroblasts (cell line BJ); assay: in vitro cytotoxic activity, MTT assay; assay type: cell-based; conditions: 72 hours; BJ fibroblasts at middle passage
Method: In vitro cytotoxic activity of several of the 6,9-disubstituted purine derivatives of this invention against human diploid fibroblasts was determined by standard MTT assay optimized for 96-well plates. The assay is based on spectrofotometric measurement of the product of metabolic conversion of MTT by mitochondria of living cells.
Human forskin fibroblasts (cell line BJ) at middle passage were maintained in 75 cm^2 plastic tissue culture flasks and cultured in cell culture medium (DMEM with 5 g/l glucose, 2 mM glutamine, 100 U/ml penicillin, 100 μg/ml streptomycin, 10% fetal calf serum, and sodium bicarbonate).
About 5,000 cells were seeded per well of the 96-well plate. After 24 hours the cell culture medium was replaced with the cell culture medium containing a test compound. The test compounds were evaluated at six 2-fold dilutions. The highest concentration used in the present study was usually 200 μM. In the case of compounds with limited solubility in the culture medium the highest concentration was adjusted. Every test compound was examined in five replicates. Cells with the test compounds were incubated for 72 hours at 37° C. in 5% CO2 atmosphere and 100% humidity. At the end of the incubation period, the culture medium was replaced with the cell culture medium containing MTT (0.5 mg/ml) and cells were incubated for another 3 hours. The formazan formed was solubilized by DMSO and absorbance at 570 nm was measured. Ability of the tested compounds to inhibit MTT reducing activity of the cells was calculated as IC=(Acompound exposed well−mean Ablank)/(mean Acontrol well−meanAblank)×100%. IC10, the drug concentration causing 10% decrease in MTT reducing activity, was calculated from the obtained dose response curves.

[2] = tested on: Human diploid fibroblasts (HCA cells); assay: inhibition of senescence, β-galactosidase staining; assay type: cell-based; conditions: test compounds about 50 μM at each passage; for Senescent Cells (%) HCA25: passage 25; for Senescent Cells (%) HCA80: passage 80
Method: Inhibition of senescence by several of the 6,9-disubstituted purine derivatives of this invention was determined; kinetin was also evaluated as a control. […] The medium used for the cell cultivation was removed, the cells were washed twice in PBS, and fixed in 2-3 ml of fixing solution comprised of a 2% formaldehyde and 0.2% glutaraldehyde in PBS. The cells were incubated at room temperature for 5 minutes, and then washed twice with PBS. The cells were subsequently incubated at 37° C. (without CO2) for 1 to 16 hours in 2-3 ml of the solution comprising potassium ferricyanide (5 mM), potassium ferrocyanide (5 mM), MgCl2 (2 mM), X-gal (5-bromo-4-chloro-3-indolyl-β-D-galactopyranoside) (1 mg/ml), in citric/phosphate buffer (pH 6.0). The test compounds (about 50 μM) were added to the medium at each passage. […] In this experiment, only senescent cells were stained blue due to the action of β-galactosidase on the substrate.

[3] = tested on: human myeloid leukemia K-562; assay: in vitro cytotoxic activity, Calcein AM microtiter assay; assay type: cell-based; conditions: K562, 72 hours, highest concentration 166.7 μM
Method: (§1) In vitro cytotoxic activity of several of the 6,9-disubstituted purine derivatives of this invention was determined using a microtiter assay with Calcein AM and a panel of cell lines of different histogenetic and species origin; kinetin was also examined as a control. Because only metabolically active cells cleave Calcein AM (tetraacetoxymethyl ester of calcein), the intracellular concentration of calcein corresponds to the number of vital cells in the culture.
(§2) The following cell lines were used: human osteosarcoma (HOS); breast carcinoma MCF-7; human myeloid leukemia K-562; and mouse fibroblasts NIH3T3. The cells were maintained in Nunc/Corning 80 cm^2 plastic tissue culture flasks and cultured in cell culture medium (DMEM with 5 g/l glucose, 2 mM glutamine, 100 U/ml penicillin, 100 μg/ml streptomycin, 10% fetal calf serum, and sodium bicarbonate).
(§3) The cell suspensions were prepared and diluted according to the particular cell type and the expected target cell density (2.500-30.000 cells per well based on cell growth characteristics) were added by pipette (80 μl) into 96/well microtiter plates. Inoculates were allowed a pre-incubation period of 24 hours at 37° C. and 5% CO2 for stabilization. Four-fold dilutions of the intended test concentration were added at time zero in 20 μl aliquots to the microtiter plate wells. The test compounds were generally evaluated at six 4-fold dilutions. The highest well concentration used in the present study was 166.7 μM. All samples were examined in triplicates. Incubations of cells with the tested compounds was for 72 hours at 37° C., in 5% CO2 atmosphere and 100% humidity. At the end of the incubation period, Calcein AM was added to a final concentration of 1 μg/ml incubated for 1 hour. Fluorescence intensity (FI) was measured with a Labsystem FIA Reader Fluoroscan Ascent (UK). The cell survival (GI50) was calculated using the following equation: GI50=([…])/(mean FIcontrol well−mean FIblank)×100%. The GI50 value, the drug concentration lethal to 50% of the cells, was calculated from the obtained dose response curves.

breast carcinoma MCF-7 = assay: as above; assay type: cell-based; conditions: Homo sapiens, MCF7; 72 hours; highest concentration 166.7 μM
Method: as §1, §2, §3

mouse fibroblasts NIH3T3 = assay: as above; assay type: cell-based; conditions: read-out: GI50 NIH-3T3
Method: as §1, §2, §3

human osteosarcoma (HOS) = assay: as above; assay type: cell-based; conditions: 72 hours, highest concentration 166.7 μM
Method: as §1, §2, §3

photodamaged facial skin = assay: earlier clinical study of topically applied kinetin (0.1%); assay type: in vivo, human; conditions: kinetin 0.1% topical; for Mean Improvement from Baseline: Coarse Wrinkles / Mean Improvement from Baseline: Fine Wrinkles / Mean Improvement from Baseline: Mottled Hyperpigmentation / Mean Improvement from Baseline: Overall Skin Condition / Mean Improvement from Baseline: Roughness: expert evaluation; for Subjects Reporting Improvement from Baseline: Blotchiness / Subjects Reporting Improvement from Baseline: Color / Subjects Reporting Improvement from Baseline: Fine Wrinkles / Subjects Reporting Improvement from Baseline: Texture: self assessment
Source text: This Example compares the clinical data for topically applied 6-furfurylamino-9-(2-tetrahydropyranyl)purine (0.10%) taken from Example 23 with similar clinical data generated for topically applied kinetin (0.1%) from an earlier study. The protocol for the earlier clinical trial for kinetin was similar to the protocol as described in Example 23 for the inventive compound; thirty two female volunteers completed the earlier kinetin study. This comparison is based on the expert evaluations and self evaluations of skin condition for eight and twelve week data for some of the parameters evaluated in both studies.

[4] = tested on: cultured human fibroblasts; conditions: cited from earlier work
[5] = tested on: Rat C6 glioma (ATCC No. CCL107); assay: anti-inflammatory activity: isoproterenol-induced intracellular cAMP synthesis; assay type: cell-based; conditions: cAMP after 30 min with (−)-isoproterenol
Method: Anti-inflammatory activity of several of the 6,9-disubstituted purine derivatives of this invention was determined; kinetin was also evaluated as a control. Rat C6 glioma (ATCC No. CCL107) was cultivated in monolayer in serum-free chemically defined medium containing Ham's F10/minimal essential medium (1:1 v/v), 2 mM L-glutamine, 1% (v/v) minimal essential medium vitamins (100×), 1% (v/v) minimal essential medium nonessential amino acids (100×), 100 U/ml penicillin, […], and 30 nM sodium selenite. Incubation was performed at 37° C. in a humidified atmosphere. The assays were performed in the logaritmic growth phase at a density of 2.5×10^5 cells/cm^2. Intracellular cAMP synthesis was induced by addition of 5 mM (−)-isoproterenol; various amounts of test compounds were added at the same time as the (−)-isoproterenol. After 30 min incubation at 37° C., the medium was removed and the cellular amount of cAMP was determined using the cAMP-enzyme immunoassay kit from Amersham. The I50 value was determined from a dose-response curve in duplicate.

melting point: 137 to 138 °C
SMILES: COc1ccc(CNc2ncnc3c2ncn3C2CCCCO2)cc1 (centres unmarked) [6-(4-methoxybenzylamino)-9-(2-tetrahydropyranyl)purine]
IC10 (concentration causing 10% decrease in MTT reducing activity) [1]: >100 µM
Senescent Cells (%) HCA50 [2]: 3%
Senescent Cells (%) HCA25 [2]: 4%
Senescent Cells (%) HCA80 [2]: 26%
GI50 [3]: > 167 µM
GI50 (breast carcinoma MCF-7): > 167 µM
GI50 (mouse fibroblasts NIH3T3; NIH3T3, 72 hours, highest concentration 166.7 μM): > 167 µM
GI50 (human osteosarcoma (HOS)): > 167 µM

SMILES: c1coc(CNc2ncnc3nc[nH]c23)c1 [Kinetin, N6-furfuryl-adenine]
Mean Improvement from Baseline: Coarse Wrinkles (photodamaged facial skin; Eight Week Data): 4%
Mean Improvement from Baseline: Fine Wrinkles (photodamaged facial skin; Eight Week Data): 2%
Mean Improvement from Baseline: Mottled Hyperpigmentation (photodamaged facial skin; Eight Week Data): 25%*
Mean Improvement from Baseline: Overall Skin Condition (photodamaged facial skin; Eight Week Data): 3%
Mean Improvement from Baseline: Roughness (photodamaged facial skin; Eight Week Data): 35%
Mean Improvement from Baseline: TEWL (photodamaged facial skin; Eight Week Data): 13%
Subjects Reporting Improvement from Baseline: Blotchiness (photodamaged facial skin; Eight Week Data): 50%
Subjects Reporting Improvement from Baseline: Color (photodamaged facial skin; Eight Week Data): 53%
Subjects Reporting Improvement from Baseline: Fine Wrinkles (photodamaged facial skin; Eight Week Data): 57%
Subjects Reporting Improvement from Baseline: Texture (photodamaged facial skin; Eight Week Data): 77%
Mean Improvement from Baseline: Coarse Wrinkles (photodamaged facial skin; Twelve Week Data): 4%
Mean Improvement from Baseline: Fine Wrinkles (photodamaged facial skin; Twelve Week Data): 6%*
Mean Improvement from Baseline: Mottled Hyperpigmentation (photodamaged facial skin; Twelve Week Data): 25%*
Mean Improvement from Baseline: Overall Skin Condition (photodamaged facial skin; Twelve Week Data): 4%*
Mean Improvement from Baseline: Roughness (photodamaged facial skin; Twelve Week Data): 52%*
Mean Improvement from Baseline: TEWL (photodamaged facial skin; Twelve Week Data): 15%
Subjects Reporting Improvement from Baseline: Blotchiness (photodamaged facial skin; Twelve Week Data): 74%
Subjects Reporting Improvement from Baseline: Color (photodamaged facial skin; Twelve Week Data): 71%
Subjects Reporting Improvement from Baseline: Fine Wrinkles (photodamaged facial skin; Twelve Week Data): 71%
Subjects Reporting Improvement from Baseline: Texture (photodamaged facial skin; Twelve Week Data): 87%
morphological and biochemical characteristics associated with serial passaging of cells [4]: delayed the onset and decreased the extent of many morphological and biochemical characteristics associated with serial passaging of cells
Anti-inflammatory Activity Effect [5]: inactive; also recorded: Not active
Senescent Cells (%) HCA50 [2]: 5%
Senescent Cells (%) HCA25 [2]: 3%
Senescent Cells (%) HCA80 [2]: 38%
GI50 [3]: 164 µM
GI50 (breast carcinoma MCF-7): > 167 µM
GI50 (mouse fibroblasts NIH3T3; NIH3T3, 72 h): 155 µM
GI50 (human osteosarcoma (HOS)): > 167 µM
